The values below come from US8021672B2, “Development of a Chlamydia sp. vaccine strain” (priority 2006, dated 2011).

A value given as a limit tells only on which side of the number the result lay.

One data set relates to uninfected McCoy cells. In words: Cytotoxicity of novobiocin for uninfected host cells. It counts as cell-based. The protocol: (§1) Cell culture media and reagents were purchased from Mediatech (Hearndon, Va.). Wells containing confluent monolayers of McCoy cells were infected at an approximate MOI of 0.5-1, before being centrifuged for 1 hour at 37° C. The infective inoculum was then removed and replaced with 1× Dulbecco's modified Eagle's medium (DMEM) supplemented with 10% heat-inactivated FBS, gentamicin (20 μg ml^−1) and 0.1 μg ml^−1 cycloheximide. We have previously determined that concentrations in excess of 250 μg ml^−1 are cytotoxic for uninfected McCoy cells. Novobiocin (Sigma, St. Louis, Mo.) was added at the indicated concentrations (up to 250 μg ml^−1) at 4 hours post infection. Infected cells were incubated at 37° C., 5% CO2 for a further 36 hours. Infected cells were harvested into SPG buffer (218 mM sucrose, 3.8 mM KH2PO4, 7.2 mM K2HPO4, 4.9 mM L-glutamate, pH 7.2) at 40 hours post infection, sonicated, and stored at −80° C. Bacteria were subsequently titrated by plaque assay or as inclusion forming units (IFU) using a genus-specific fluorescently tagged monoclonal antibody (Biorad, Hercules, Calif.).

Another data set deals with McCoy cells. In words: Iodine staining of Chlamydia-infected cells for glycogen accumulation. It counts as cell-based. The following applies: Nigg-infected McCoy monolayers, 62.5 μg ml^−1. The text has this:
Iodine staining of Chlamydia-infected cells. McCoy cells cultured on glass cover slips were infected as described above. At the desired point in the infection the culture medium was removed and the monolayer rinsed several times with 1×HBSS before being fixed and stained with iodine (Schachter J & Dawson, 1978) in order to detect the presence of accumulated glycogen. Stained cells were immediately photographed using a digital camera system and SPOT version 4.0.6 software from Diagnostic Instruments Inc. (Sterling Heights, Mich.).
Plasmid-deficient C. muridarum fail to accumulate glycogen within inclusions.

The next data set deals with plasmid. To be noted: 20 μg ml^−1 in conjunction with imipramine; cited from earlier work.
For another data set, the system named is C. muridarum strain Nigg. In words: Effect of novobiocin treatment on replication of Chlamydiae (titration by plaque assay). Format: cell-based. The following applies: novobiocin 62.5 μg ml^−1 added 4 hours post infection.
Text: FIG. 1. Effect of novobiocin treatment on replication of C. muridarum strain Nigg. The novobiocin-treated Chlamydiae were harvested and plated by centrifugation to generate individual plaques for titration. The relative infectious yield of strain Nigg at each novobiocin concentration was derived by normalizing the total infectious yield per treated population against the yield from the untreated control. The graph is drawn from a single representative experiment with each point assayed in duplicate.
as §1, with “Infected cells were harvested into SPG buffer (218 mM sucrose, 3.8 mM KH2PO4, 7.2 mM K2HPO4, 4.9 mM L-glutamate, pH 7.2) at 40 hours post infection, sonicated, and stored at −80° C. Bacteria were subsequently titrated by plaque assay or as inclusion forming units (IFU) using a genus-specific fluorescently tagged monoclonal antibody (Biorad, Hercules, Calif.).” left out
Effect of novobiocin treatment on replication of Chlamydiae. […] The titers of novobiocin-treated bacteria were measured by plaque assays (FIG. 1). […]

Take `CO[C@@H]1[C@@H](OC(N)=O)[C@@H](O)[C@H](Oc2ccc3c(O)c(NC(=O)c4ccc(O)c(CC=C(C)C)c4)c(=O)oc3c2C)OC1(C)C` [novobiocin]: in the data set with uninfected McCoy cells, the “concentrations cytotoxic for uninfected McCoy cells” value is over 250 µg/mL. Moreover, in the data set on McCoy cells, the “iodine staining of inclusions under novobiocin treatment” value is listed as “variable iodine staining of inclusions”. Moreover, the “effect on plasmid copy number” value with plasmid was “plasmid copy number increases”. Further, the “reduction of relative infectious yield of bacteria” value in the data set with C. muridarum strain Nigg is recorded as “at least 100 fold”.
